Results published in patent publication US5440016A, “Peptides of the formula (KFmoc) ZZZ and their uses” (priority 1993, dated 1995).
Ends that are not written are not given here.

Biological target: melittin (Apis mellifera, UniProt P01501)
Test: cell-based
Conditions: read-out: IC50, inhibition of melittin (converted)

Chain of melittin (P01501 44-69 limits assumed): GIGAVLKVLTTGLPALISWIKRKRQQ

| Substance | IC50 [µM] |
| --- | --- |
| Ac-IVILLI-NH2 [Ac-IVILLI-NH2] | 35.9 |
| Ac-IVILTE-NH2 [Ac-IVILTE-NH2] | 33 |
| Ac-IDIYFK-NH2 [Ac-IDIYFK-NH2] | 918 |
| Ac-IVILTP-NH2 [Ac-IVILTP-NH2] | 70.4 |
| Ac-IQIYCK-NH2 [Ac-IQIYCK-NH2] | 1310 |
| Ac-IVILLP-NH2 [Ac-IVILLP-NH2] | 36.7 |
| Ac-FDIWFE-NH2 [Ac-FDIWFE-NH2] | 185 |
| Ac-IVILLN-NH2 [Ac-IVILLN-NH2] | 17.9 |
| Ac-IVIFFF-NH2 [Ac-IVIFFF-NH2] | 205 |
| Ac-IVILLT-NH2 [Ac-IVILLT-NH2] | 25.3 |
| Ac-IDIYCE-NH2 [Ac-IDIYCE-NH2] | 361 |
| Ac-IIIYCE-NH2 [Ac-IIIYCE-NH2] | 15.1 |
| Ac-IVIFFV-NH2 [Ac-IVIFFV-NH2] | 38.6 |
| NDEIVF-NH2 [NDEIVF-NH2] | 853 |
| Ac-IVILLG-NH2 [Ac-IVILLG-NH2] | 25.5 |
| Ac-IVILTV-NH2 [Ac-IVILTV-NH2] | 30.1 |
| Ac-IVILTK-NH2 [Ac-IVILTK-NH2] | > 344 |
| Ac-VIQQFV-NH2 [Ac-VIQQFV-NH2] | 20.7 |
| Ac-IDIWCK-NH2 [Ac-IDIWCK-NH2] | 130 |
| Ac-IVIFFS-NH2 [Ac-IVIFFS-NH2] | 27.4 |
| Ac-IIIWCE-NH2 [Ac-IIIWCE-NH2] | 5.51 |
| Ac-IVILLF-NH2 [Ac-IVILLF-NH2] | 27.7 |

| Substance | IC50 [µM] |
| --- | --- |
| Ac-IVIFFD-NH2 [Ac-IVIFFD-NH2] | 12.6 |
| Ac-FDIYFE-NH2 [Ac-FDIYFE-NH2] | 1050 |
| Ac-IVILLL-NH2 [Ac-IVILLL-NH2] | 123 |
| Ac-FIIYFK-NH2 [Ac-FIIYFK-NH2] | 419 |
| Ac-IVIFFW-NH2 [Ac-IVIFFW-NH2] | 18.5 |
| NEEIVF-NH2 [NEEIVF-NH2] | 1210 |
| Ac-IVILTS-NH2 [Ac-IVILTS-NH2] | 52.5 |
| Ac-IVILTQ-NH2 [Ac-IVILTQ-NH2] | 15.1 |
| Ac-IVILTN-NH2 [Ac-IVILTN-NH2] | 19.6 |
| Ac-FDIYCE-NH2 [Ac-FDIYCE-NH2] | 229 |
| Ac-IVILTT-NH2 [Ac-IVILTT-NH2] | 62.9 |
| Ac-IVIFFE-NH2 [Ac-IVIFFE-NH2] | 17.3 |
| Ac-IVILTM-NH2 [Ac-IVILTM-NH2] | 12.3 |
| Ac-IQIYCE-NH2 [Ac-IQIYCE-NH2] | 5.93 |
| Ac-IVILLD-NH2 [Ac-IVILLD-NH2] | 24.8 |
| Ac-MILWIE-NH2 [Ac-MILWIE-NH2] | 13 |
| Ac-IVILTY-NH2 [Ac-IVILTY-NH2] | 23.6 |
| Ac-IVILLH-NH2 [Ac-IVILLH-NH2] | > 334 |
| Ac-IVILLV-NH2 [Ac-IVILLV-NH2] | 98.6 |
| Ac-IVILLM-NH2 [Ac-IVILLM-NH2] | 27 |
| Ac-IVILTI-NH2 [Ac-IVILTI-NH2] | > 351 |
